Results: patent publication US20090068290A1, “BIFEPRUNOX DOSES FOR TREATING SCHIZOPHRENIA” (priority 2006, published 2009)

What was measured:
[1] = test system: adult subjects with schizophrenia; assay: PANSS general psychopathology subscale score, Clinical Study Three; assay type: in vivo, human; conditions: LOCF; for Change from Baseline in PASS General Psychopathology Subscale Score, Mean (SD) / Change from Baseline in PASS General Psychopathology Subscale Score, Median: Olanzapine 15 mg, ITT population
Source text: (§1) SECONDARY OBJECTIVES To assess the efficacy of bifeprunox in treating schizophrenia using the Positive Symptom sub-scale score of the PANSS, the Negative Symptom sub-scale score of the PANSS, the General Psychopathology sub-scale of the PANSS, Brief Psychiatric Rating Scale (BPRS) total score derived from the PANSS, BPRS psychosis score derived from the PANSS, the Clinical Global Impression Severity of Illness score (CGI-S), the Clinical Global Impression Improvement score (CGI-I), CGI-I responder rate, PANSS responder rate based on the PANSS total score, Calgary Depression Scale for Schizophrenia (CDSS), and Subject Satisfaction rating.
(§2) There were four treatment arms in this study, approximately 144 subjects per arm. […] After completing the Single-Blind Placebo Lead-in Period of at least three days, bifeprunox-treated subjects were titrated from 0.25 mg up to 20 mg/day or 30 mg/day according to a standardized titration scheme over a seven- or eight-day period, respectively. When the assigned dose was reached, subjects were maintained at that dose for the remainder of the six week treatment period. […] Subjects were hospitalized (if not already inpatients) after eligibility for study entry was verified, starting from the Screening Visit until at least 10 days after Baseline. Subjects could be hospitalized longer than 10 days if considered medically necessary by the Investigator. Rating scale assessments for efficacy and abnormal movement disorders were done weekly except for Week 5. […] Subject satisfaction with study medication was assessed at Week 6.

[2] = test system: adult subjects with schizophrenia; assay: Calgary Depression Scale for Schizophrenia (CDSS), Clinical Study Three; assay type: in vivo, human; conditions: LOCF; for Change from Baseline in CDSS Total Score, Median / Change from Baseline in CDSS Total Score, Mean (SD): 15 mg
Source text: as §1, §2

[3] = Pooled metabolic analysis, 6-week studies: body weight; conditions: 6-week studies
Source text: OBJECTIVE: To examine the metabolic effects of bifeprunox in patients with acute and stable schizophrenia.
METHODS: Metabolic data was compiled from one 6-month and four 6-week studies (i.e., a treatment period) of bifeprunox in patients with stable and acute schizophrenia, respectively. In the 6-month study, patients received bifeprunox (n=331) or placebo (PBO) (n=166). […] Metabolic evaluations included body weight, body mass index (BMI), plasma glucose and lipid profiles. Fasting glucose and lipid values were assessed in one 6-week study and in the 6-month study. Triglyceride:HDL ratio (TG:HDL) was calculated as a marker of insulin resistance. No statistical analyses were performed; only descriptive statistics are presented.

[4] = Body weight, Clinical Study One; assay type: in vivo, human; conditions: Risperidone 6 mg
Method: Statistical testing of the change from Baseline in weight was performed using similar methodology to that used for the secondary efficacy parameters (an ANCOVA model with factors for treatment and weight at Baseline). Pairwise comparisons of the bifeprunox treatment groups versus placebo were all statistically significant (bifeprunox 5 mg [p=0.025], bifeprunox 10 mg [p=0.009] and bifeprunox 20 mg [p=0.031] for the difference between bifeprunox and placebo mean change from Baseline in weight at Endpoint.

[5] = Body weight, Clinical Study Two; assay type: in vivo, human; conditions: Risperidone 6 mg
[6] = test system: adult subjects with schizophrenia; assay: PANSS negative symptom subscale score, Clinical Study Two; assay type: in vivo, human; conditions: Risperidone 6 mg, LOCF, ITT
Method: Rating scale assessments were performed weekly, except for week 5, to measure the change from baseline to endpoint of the PANSS total score. Other assessments included: PANSS positive symptom subscale score, PANSS negative symptom subscale score, PANSS general pschopathology subscale score, BPRS total score, BPRS psychosis score, the CGI-S score, the CGI-I score, responder rates based on the PANSS total score, and the Calgary Depression Scale for Schizophrenia (CDSS). […]
Subjects who completed this study had the option to continue in the long-term. […] Risperidone-treated subjects were titrated from 2 mg to 6 mg daily over a three-day period and were subsequently maintained at 6 mg/day for the remainder of the treatment period. […] Blood samples were also obtained at Screening/Baseline, Week 3, and Week 6 for clinical laboratory assessments.

In the case of `Cc1cc2c(s1)Nc1ccccc1N=C2N1CCN(C)CC1` [Olanzapine, olanzapine, reference compound], the “Change from Baseline in PASS General Psychopathology Subscale Score, Mean (SD)” value ([1]; Week 1) is reported as −4.5 (6.2), the “Change from Baseline in PASS General Psychopathology Subscale Score, Median” value ([1]; Week 1) is reported as −3 and the “Change from Baseline in PASS General Psychopathology Subscale Score, Mean (SD)” value ([1]; Week 2) is reported as −7.2 (7.8). The “Change from Baseline in PASS General Psychopathology Subscale Score, Median” value ([1]; Week 2) was −6, the “Change from Baseline in PASS General Psychopathology Subscale Score, Mean (SD)” value ([1]; Week 3) was −9.3 (8.3) and the “Change from Baseline in PASS General Psychopathology Subscale Score, Median” value ([1]; Week 3) was −8. The “Change from Baseline in PASS General Psychopathology Subscale Score, Mean (SD)” value ([1]; Week 4) was −9.6 (8.6), the “Change from Baseline in PASS General Psychopathology Subscale Score, Median” value ([1]; Week 4) was −9 and the “Change from Baseline in PASS General Psychopathology Subscale Score, Mean (SD)” value ([1]; Week 6/Endpoint) was −10.5 (9.4). For the same molecule, the “Change from Baseline in PASS General Psychopathology Subscale Score, Median” value ([1]; Week 6/Endpoint) was −9, the “mean change (SD) from Baseline to Endpoint in PANSS general psychopathology subscale score” value ([1]; olanzapine 15 mg, ITT) was −10.5 (9.4) and the “Change from Baseline in CDSS Total Score, Median” value ([2]; Week 1) was −1.0. For the same molecule, the “Change from Baseline in CDSS Total Score, Mean (SD)” value ([2]; Week 2) was −1.33 (3.33), the “Change from Baseline in CDSS Total Score, Median” value ([2]; Week 2) was −1.0 and the “Change from Baseline in CDSS Total Score, Mean (SD)” value ([2]; Week 3) was −1.59 (3.43). The “Change from Baseline in CDSS Total Score, Median” value ([2]; Week 3) was −1.0, the “Change from Baseline in CDSS Total Score, Mean (SD)” value ([2]; Week 4) was −1.49 (3.89) and the “Change from Baseline in CDSS Total Score, Median” value ([2]; Week 4) was −1.0. The “Change from Baseline in CDSS Total Score, Mean (SD)” value ([2]; Week 6, Endpoint) was −1.47 (3.95), the “Change from Baseline in CDSS Total Score, Median” value ([2]; Week 6, Endpoint) was −1.0 and the “mean change (SD) from Baseline to Endpoint in CDSS score” value ([2]; olanzapine 15 mg, ITT) was −1.47 (3.95).
In the case of `Cc1nc2n(c(=O)c1CCN1CCC(c3noc4cc(F)ccc34)CC1)CCCC2` [Risperidone, risperidone, reference compound], the “mean weight increase at endpoint” value ([3]; pooled) is reported as 1.7 kg, the mean weight change ([3]; pooled (overall summary)) is reported as “+1.7 kg” and the “mean weight change (increase)” value [4] is reported as 4.8 lb. The “subjects who decreased their weight by ≧7%” value [4] was “No subjects”, the “subjects who increased their weight by ≧7%” value [4] was 13% and the “Weight, Baseline Mean of subjects with Endpoint change” value [5] was 174.5 lbs. For the same molecule, the “Weight, Baseline Mean of subjects with Week 6 change” value [5] was 166.6 lbs, the “Weight, Baseline, Max” value [5] was 404 lbs and the “Weight, Baseline, Mean (SD)” value [5] was 174.3 (58.5) lbs. For the same molecule, the “Weight, Baseline, Median” value [5] was 170 lbs, the “Weight, Baseline, Min” value [5] was 82 lbs and the “Weight, Change from Baseline at Endpoint, Max” value [5] was 33 lbs. The “Weight, Change from Baseline at Endpoint, Mean (SD)” value [5] was 3.2 (7.4) lbs, the “Weight, Change from Baseline at Endpoint, Median” value [5] was 2 lbs and the “Weight, Change from Baseline at Endpoint, Min” value [5] was −20 lbs. For the same molecule, the “Weight, Change from Baseline at Week 6, Max” value [5] was 33 lbs, the “Weight, Change from Baseline at Week 6, Mean (SD)” value [5] was 4.1 (7.6) lbs and the “Weight, Change from Baseline at Week 6, Median” value [5] was 2 lbs. For the same molecule, the “Weight, Change from Baseline at Week 6, Min” value [5] was −12 lbs, the “mean weight change at Endpoint” value [5] was 3.2 lbs and the “Change from Baseline in PANSS Negative Symptom Subscale Score, Mean (SD)” value ([6]; Week 1) was −1.5 (3.0). The “Change from Baseline in PANSS Negative Symptom Subscale Score, Median” value ([6]; Week 1) was −2, the “Change from Baseline in PANSS Negative Symptom Subscale Score, Mean (SD)” value ([6]; Week 2) was −2.9 (4.3) and the “Change from Baseline in PANSS Negative Symptom Subscale Score, Median” value ([6]; Week 2) was −3. The “Change from Baseline in PANSS Negative Symptom Subscale Score, Mean (SD)” value ([6]; Week 3) was −3.3 (4.9), the “Change from Baseline in PANSS Negative Symptom Subscale Score, Median” value ([6]; Week 3) was −3 and the “Change from Baseline in PANSS Negative Symptom Subscale Score, Mean (SD)” value ([6]; Week 4) was −3.8 (5.5). The “Change from Baseline in PANSS Negative Symptom Subscale Score, Median” value ([6]; Week 4) was −4, the “Change from Baseline in PANSS Negative Symptom Subscale Score, Mean (SD)” value ([6]; Week 6/Endpoint) was −3.8 (5.5) and the “Change from Baseline in PANSS Negative Symptom Subscale Score, Median” value ([6]; Week 6/Endpoint) was −3.
